#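 Interpolation was linear, between the two tested concentrations surrounding the appropriate level; five concentrations were tested over 48 hours in 96-well plates. TGI: concentration producing complete growth inhibition.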
# Columns and labels:
# Test in all cases: NCI tumour cell line growth inhibition, 48 h
# ACHN renal = test system: ACHN renal
# CCRF-CEM leukemia = test system: CCRF-CEM leukemia
# COLO 205 colon = test system: COLO 205 colon
# DMS 114 small cell lung = test system: DMS 114 small cell lung
# HCT-116 colon = test system: HCT-116 colon
# HL-60(TB) leukemia = test system: HL-60(TB) leukemia
# HOP-62 NSCLC = test system: HOP-62 NSCLC
# HOP-92 NSCLC = test system: HOP-92 NSCLC
# HT29 colon = test system: HT29 colon
# K-562 leukemia = test system: K-562 leukemia
# KM12 colon = test system: KM12 colon
# KM20L2 colon = test system: KM20L2 colon
# LXFL 529 NSCLC = test system: LXFL 529 NSCLC
# M14 melanoma = test system: M14 melanoma
# M19-MEL melanoma = test system: M19-MEL melanoma
# MALME-3M melanoma = test system: MALME-3M melanoma
# NCI-H23 lung = test system: NCI-H23 lung
# NCI-H460 lung = test system: NCI-H460 lung
# NCI-H522 lung = test system: NCI-H522 lung
# OVCAR-3 ovarian = test system: OVCAR-3 ovarian
# OVCAR-4 ovarian = test system: OVCAR-4 ovarian
# OVCAR-5 ovarian = test system: OVCAR-5 ovarian
# RPMI-8226 leukemia = test system: RPMI-8226 leukemia
# SF-268 CNS = test system: SF-268 CNS
# SF-295 CNS = test system: SF-295 CNS
# SF-539 CNS = test system: SF-539 CNS
# SK-MEL-2 melanoma = test system: SK-MEL-2 melanoma
# SK-MEL-28 melanoma = test system: SK-MEL-28 melanoma
# SNB-75 CNS = test system: SNB-75 CNS
# SNB-78 CNS = test system: SNB-78 CNS
# SR leukemia = test system: SR leukemia
# U251 CNS = test system: U251 CNS
# UACC-257 melanoma = test system: UACC-257 melanoma
# UACC-62 melanoma = test system: UACC-62 melanoma
# UO-31 renal = test system: UO-31 renal
# 786-0 renal = test system: 786-0 renal
# A498 renal = test system: A498 renal
# IGROV1 ovarian = test system: IGROV1 ovarian
# MOLT-4 leukemia = test system: MOLT-4 leukemia
# RXF 393 renal = test system: RXF 393 renal
# SK-OV-3 ovarian = test system: SK-OV-3 ovarian
# SNB-19 CNS = test system: SNB-19 CNS
# A549 NSCLC = test system: A549 NSCLC
# DLD-1 colon = test system: DLD-1 colon
# DMS 273 small cell lung = test system: DMS 273 small cell lung
# EKVX NSCLC = test system: EKVX NSCLC
# HCC-2998 colon = test system: HCC-2998 colon
# HCT-15 colon = test system: HCT-15 colon
# HOP-18 NSCLC = test system: HOP-18 NSCLC
# LOX IMVI melanoma = test system: LOX IMVI melanoma
# NCI-H226 lung = test system: NCI-H226 lung
# OVCAR-8 ovarian = test system: OVCAR-8 ovarian
# SK-MEL-5 melanoma = test system: SK-MEL-5 melanoma
# SN12C renal = test system: SN12C renal
# TK-10 renal = test system: TK-10 renal
smiles,measurement,setting,value
CCc1c(O)c(O)c(C(C)=O)c2c(O)c(-c3c(C)cc4c(CC)c(O)c(O)c(C(C)=O)c4c3O)c(C)cc12,TGI,ACHN renal,28.8 µM
same,TGI,CCRF-CEM leukemia,8.64 µM
same,TGI,COLO 205 colon,21.4 µM
same,TGI,DMS 114 small cell lung,18.4 µM
same,TGI,HCT-116 colon,14.3 µM
same,TGI,HL-60(TB) leukemia,14.9 µM
same,TGI,HOP-62 NSCLC,27.4 µM
same,TGI,HOP-92 NSCLC,10.4 µM
same,TGI,HT29 colon,17.1 µM
same,TGI,K-562 leukemia,11.3 µM
same,TGI,KM12 colon,11.7 µM
same,TGI,KM20L2 colon,17.6 µM
same,TGI,LXFL 529 NSCLC,16.5 µM
same,TGI,M14 melanoma,21.6 µM
same,TGI,M19-MEL melanoma,30.8 µM
same,TGI,MALME-3M melanoma,31.5 µM
same,TGI,NCI-H23 lung,16.1 µM
same,TGI,NCI-H460 lung,38.5 µM
same,TGI,NCI-H522 lung,14.8 µM
same,TGI,OVCAR-3 ovarian,18 µM
same,TGI,OVCAR-4 ovarian,26.5 µM
same,TGI,OVCAR-5 ovarian,32.9 µM
same,TGI,RPMI-8226 leukemia,24.2 µM
same,TGI,SF-268 CNS,37.1 µM
same,TGI,SF-295 CNS,11 µM
same,TGI,SF-539 CNS,22.4 µM
same,TGI,SK-MEL-2 melanoma,23 µM
same,TGI,SK-MEL-28 melanoma,27.2 µM
same,TGI,SNB-75 CNS,30.7 µM
same,TGI,SNB-78 CNS,12.1 µM
same,TGI,SR leukemia,> 100 µM
same,TGI,U251 CNS,21.4 µM
same,TGI,UACC-257 melanoma,24.3 µM
same,TGI,UACC-62 melanoma,24.7 µM
same,TGI,UO-31 renal,22.3 µM
[N-]=[N+]=NC1(c2ccccc2)C(=O)c2cccc3c2N(CCC3)C1=O (stereo not drawn),TGI,786-0 renal,> 100 µM
same,TGI,A498 renal,> 100 µM
same,TGI,ACHN renal,> 100 µM
same,TGI,COLO 205 colon,> 100 µM
same,TGI,DMS 114 small cell lung,> 100 µM
same,TGI,HL-60(TB) leukemia,64.5 µM
same,TGI,HOP-62 NSCLC,> 100 µM
same,TGI,HOP-92 NSCLC,> 100 µM
same,TGI,HT29 colon,> 100 µM
same,TGI,IGROV1 ovarian,> 100 µM
same,TGI,K-562 leukemia,89.4 µM
same,TGI,KM12 colon,> 100 µM
same,TGI,KM20L2 colon,> 100 µM
same,TGI,LXFL 529 NSCLC,> 100 µM
same,TGI,M14 melanoma,> 100 µM
same,TGI,M19-MEL melanoma,> 100 µM
same,TGI,MOLT-4 leukemia,> 100 µM
same,TGI,NCI-H23 lung,> 100 µM
same,TGI,NCI-H460 lung,> 100 µM
same,TGI,NCI-H522 lung,> 100 µM
same,TGI,OVCAR-3 ovarian,> 100 µM
same,TGI,OVCAR-4 ovarian,> 100 µM
same,TGI,OVCAR-5 ovarian,> 100 µM
same,TGI,RPMI-8226 leukemia,> 100 µM
same,TGI,RXF 393 renal,> 100 µM
same,TGI,SF-268 CNS,> 100 µM
same,TGI,SF-295 CNS,> 100 µM
same,TGI,SK-MEL-2 melanoma,> 100 µM
same,TGI,SK-MEL-28 melanoma,> 100 µM
same,TGI,SK-OV-3 ovarian,> 100 µM
same,TGI,SNB-19 CNS,> 100 µM
same,TGI,SNB-75 CNS,> 100 µM
same,TGI,SNB-78 CNS,> 100 µM
same,TGI,SR leukemia,> 100 µM
same,TGI,U251 CNS,> 100 µM
same,TGI,UACC-257 melanoma,82.7 µM
same,TGI,UACC-62 melanoma,> 100 µM
same,TGI,UO-31 renal,74.3 µM
COc1ccc(NC(=O)CSc2nnc(-c3ccc(NC(C)=O)cc3)o2)cc1,TGI,786-0 renal,39.1 µM
same,TGI,A498 renal,30.2 µM
same,TGI,A549 NSCLC,45.3 µM
same,TGI,ACHN renal,31.1 µM
same,TGI,CCRF-CEM leukemia,> 100 µM
same,TGI,COLO 205 colon,36.8 µM
same,TGI,DLD-1 colon,41 µM
same,TGI,DMS 114 small cell lung,19.3 µM
same,TGI,DMS 273 small cell lung,33.7 µM
same,TGI,EKVX NSCLC,43.4 µM
same,TGI,HCC-2998 colon,35.4 µM
same,TGI,HCT-116 colon,29.4 µM
same,TGI,HCT-15 colon,30.2 µM
same,TGI,HL-60(TB) leukemia,50.9 µM
same,TGI,HOP-18 NSCLC,34.9 µM
same,TGI,HOP-62 NSCLC,68.6 µM
same,TGI,HT29 colon,25.2 µM
same,TGI,IGROV1 ovarian,36.9 µM
same,TGI,K-562 leukemia,> 100 µM
same,TGI,KM12 colon,30 µM
same,TGI,KM20L2 colon,36.8 µM
same,TGI,LOX IMVI melanoma,29.5 µM
same,TGI,LXFL 529 NSCLC,26.7 µM
same,TGI,M14 melanoma,33.8 µM
same,TGI,M19-MEL melanoma,55.7 µM
same,TGI,MALME-3M melanoma,40.8 µM
same,TGI,MOLT-4 leukemia,40.9 µM
same,TGI,NCI-H226 lung,57.8 µM
same,TGI,NCI-H23 lung,23.2 µM
same,TGI,NCI-H460 lung,34 µM
same,TGI,NCI-H522 lung,33.9 µM
same,TGI,OVCAR-3 ovarian,35.5 µM
same,TGI,OVCAR-4 ovarian,30.3 µM
same,TGI,OVCAR-5 ovarian,> 100 µM
same,TGI,OVCAR-8 ovarian,36.6 µM
same,TGI,RXF 393 renal,28.7 µM
same,TGI,SF-268 CNS,34.8 µM
same,TGI,SF-295 CNS,68.5 µM
same,TGI,SK-MEL-2 melanoma,38 µM
same,TGI,SK-MEL-28 melanoma,34.7 µM
same,TGI,SK-MEL-5 melanoma,27.7 µM
same,TGI,SK-OV-3 ovarian,> 100 µM
same,TGI,SN12C renal,41.9 µM
same,TGI,SNB-75 CNS,> 100 µM
same,TGI,SNB-78 CNS,44 µM
same,TGI,TK-10 renal,41.2 µM
same,TGI,U251 CNS,33.7 µM
same,TGI,UACC-257 melanoma,41.7 µM
same,TGI,UACC-62 melanoma,35.2 µM
same,TGI,UO-31 renal,33 µM

# Source: PubChem BioAssay (NCI)
